Measurements taken from US20050289668A1, “Plants with increased levels of one or more amino acids” (priority 2003, published 2005).
Where a chain is given by its changes, count along the chain named.

Legend:
[1] = molecular target: Arabidopsis threonine deaminase, mutant OMR1 (polynucleotide SEQ ID NO: 22); conditions: mutant Arabidopsis (OMR1) TD, comparison data, cited from earlier work
[2] = molecular target: Arabidopsis threonine deaminase, wild type; conditions: wild type Arabidopsis TD, comparison data, cited from earlier work
[3] = molecular target: T1, E. coli threonine deaminase (ilvA) variant L481I, SEQ ID NO: 10 (Escherichia coli, UniProt P04968, A120R/A140R/G195C/G334V/L481I/V121L); assay: Threonine deaminase steady state kinetics, L481I; assay type: biochemical
T1 construct: made in house; host or cells: E. coli (pSE380, crude extract)
T1 sequence (P04968 1-514 A120R/V121L/A140R/G195C/G334V/L481I): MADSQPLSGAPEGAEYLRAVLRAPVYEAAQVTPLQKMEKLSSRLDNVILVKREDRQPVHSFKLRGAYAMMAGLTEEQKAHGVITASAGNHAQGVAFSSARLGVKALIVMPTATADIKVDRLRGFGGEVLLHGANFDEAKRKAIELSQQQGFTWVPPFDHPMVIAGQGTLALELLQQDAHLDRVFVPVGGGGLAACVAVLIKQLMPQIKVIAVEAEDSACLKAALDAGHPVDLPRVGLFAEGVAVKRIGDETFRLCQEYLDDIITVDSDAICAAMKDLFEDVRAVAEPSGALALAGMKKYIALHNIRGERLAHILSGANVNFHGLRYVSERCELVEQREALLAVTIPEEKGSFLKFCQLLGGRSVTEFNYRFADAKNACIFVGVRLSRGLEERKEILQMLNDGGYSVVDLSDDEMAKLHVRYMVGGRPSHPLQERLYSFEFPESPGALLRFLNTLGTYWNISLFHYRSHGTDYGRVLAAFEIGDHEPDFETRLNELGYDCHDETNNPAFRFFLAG
Protocol: (§1) Before conducting further transformation experiments using the isolated ilvA alleles in transgenic plants, each allele was over-expressed in E. coli to determine its kinetic parameters. Kinetics data on threonine deaminases containing various mutations, and a comparison to data available for threonine deaminases from Arabidopsis, are provided in Table 4. The E. coli ilvA481 variants were subcloned into pSE380 (Invitrogen, Carlsbad, Calif.) and expression was induced with 0.2 mM IPTG at 37° C. for 3 hours. Expression of the E. coli alleles was high and fairly consistent as visualized by SDS-PAGE.
(§2) The effects of amino acid substitutions at Leu481 in ilvA were assessed by steady state kinetic analysis in the presence and absence of L-isoleucine. Threonine deaminase polypeptides for use in in vitro kinetics studies were extracted from E. coli cells in assay buffer containing 50 mM potassium phosphate (pH7.5), 1 mM dithiothreitol (DTT), and 0.5 mM ethylenediamine-tetraacetate. A continuous assay method was employed to monitor the formation of α-ketobutyrate directly at 230 nm (ε230 (pH7.5)=540 M^−1cm^−1 whereas threonine absorption was negligible (˜1%)). The assay was initiated by adding 20 μl of crude extract diluted 1:20 v/v to the assay vessel containing L-threonine (between 2.5 mM and 50 mM) in a final volume of 1 mL. For L-isoleucine inhibition, L-isoleucine was added between 0 mM and 20 mM. The kinetic parameters were determined by fitting the data points to the equations using GraFit 4.0 software (Erithacus Software, Surrey, UK). For comparison, the kcat values of L481 alleles were normalized to the kcat value for the wild type IlvA enzyme. Enzymes represented in FIG. 7 are: wild type E. coli threonine deaminase (circles), L481Y TD enzyme (diamonds), L481F TD enzyme (triangles), and the L481T TD enzyme (squares). Table 4 also summarizes the kinetic parameters of the variant threonine deaminase enzymes produced by the various E. coli ilvA alleles.

[4] = molecular target: T2, E. coli threonine deaminase (ilvA) variant L447F (ilvA219), SEQ ID NO: 3 (Escherichia coli, UniProt P04968, A120R/A140R/G195C/G334V/L447F/V121L); assay: Threonine deaminase steady state kinetics, L447F (ilvA219); assay type: biochemical
T2 construct: made in house; host or cells: E. coli (crude extract)
T2 sequence (P04968 1-514 A120R/V121L/A140R/G195C/G334V/L447F): T1 sequence (P04968 1-514 A120R/V121L/A140R/G195C/G334V/L481I) with L447F, I481L

[5] = molecular target: T3, E. coli threonine deaminase (ilvA) variant L481Y, SEQ ID NO: 5 (Escherichia coli, UniProt P04968, A120R/A140R/G195C/G334V/L481Y/V121L); assay: Threonine deaminase steady state kinetics, L481Y; assay type: biochemical
T3 construct: made in house; host or cells: E. coli (pSE380, crude extract)
T3 sequence (P04968 1-514 A120R/V121L/A140R/G195C/G334V/L481Y): T1 sequence (P04968 1-514 A120R/V121L/A140R/G195C/G334V/L481I) with I481Y
Protocol: as §1, §2

[6] = molecular target: T4, E. coli threonine deaminase (ilvA) variant L481T, SEQ ID NO: 8 (Escherichia coli, UniProt P04968, A120R/A140R/G195C/G334V/L481T/V121L); assay: Threonine deaminase steady state kinetics, L481T; assay type: biochemical
T4 construct: made in house; host or cells: E. coli (pSE380, crude extract)
T4 sequence (P04968 whole entry A120R/V121L/A140R/G195C/G334V/L481T): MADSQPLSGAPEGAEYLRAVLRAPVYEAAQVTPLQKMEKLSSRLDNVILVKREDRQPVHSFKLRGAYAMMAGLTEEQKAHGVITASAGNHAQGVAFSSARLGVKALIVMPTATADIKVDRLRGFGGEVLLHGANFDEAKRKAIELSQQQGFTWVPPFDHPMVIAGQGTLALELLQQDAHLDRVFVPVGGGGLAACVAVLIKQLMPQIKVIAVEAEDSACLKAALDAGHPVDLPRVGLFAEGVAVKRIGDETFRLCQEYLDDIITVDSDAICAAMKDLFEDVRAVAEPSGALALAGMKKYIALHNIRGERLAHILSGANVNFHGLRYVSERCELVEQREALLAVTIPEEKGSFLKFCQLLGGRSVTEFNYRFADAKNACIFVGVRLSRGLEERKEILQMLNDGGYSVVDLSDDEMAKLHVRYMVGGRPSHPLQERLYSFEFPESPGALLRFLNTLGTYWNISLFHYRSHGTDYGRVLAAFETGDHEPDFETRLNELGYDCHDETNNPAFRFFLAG
Protocol: as §1
The effects of amino acid substitutions at Leu481 in ilvA were assessed by steady state kinetic analysis in the presence and absence of L-isoleucine. Threonine deaminase polypeptides for use in in vitro kinetics studies were extracted from E. coli cells in assay buffer containing 50 mM potassium phosphate (pH7.5), 1 mM dithiothreitol (DTT), and 0.5 mM ethylenediamine-tetraacetate. A continuous assay method was employed to monitor the formation of α-ketobutyrate directly at 230 nm (ε230 (pH7.5)=540 M^−1cm^−1 whereas threonine absorption was negligible (˜1%)). […] The kinetic parameters were determined by fitting the data points to the equations using GraFit 4.0 software (Erithacus Software, Surrey, UK). […]

In the case of `CC[C@H](C)[C@H](N)C(=O)O` [L-isoleucine], the IC50 [1] is listed as 500 µM, the IC50 [2] is listed as 10 µM and the IC50 [3] is listed as 134 µM. For the same molecule, the IC50 [4] was greater than 20000 µM, the IC50 [5] was 1600 µM and the IC50 [6] was 449 µM.

In the case of `C[C@@H](O)[C@H](N)C(=O)O` [L-threonine], the Km ([1]; read-out: Km^Thr) is given as 3.6 mM, the Km ([2]; read-out: Km^Thr) is given as 2.8 mM and the “Hill coefficient (n), substrate binding” value ([3]; L481I, pMON25861, positive cooperativity) is given as 1.6. The Km ([3]; read-out: Km^Thr, L481I, pMON25861, pH 7.5, L-threonine 2.5-50 mM) was 7.6 mM, the “Hill coefficient (n), substrate binding” value ([4]; L447F, pMON25859, negative cooperativity) was 0.5 and the Km ([4]; read-out: Km^Thr, L447F, pMON25859, pH 7.5, L-threonine 2.5-50 mM) was 1.7 mM. The “Hill coefficient (n), substrate binding” value ([5]; L481Y, pMON25868, degree of cooperativity) was 1.1, the Km ([5]; read-out: Km^Thr, L481Y, pMON25868, pH 7.5, L-threonine 2.5-50 mM) was 2 mM and the Km ([6]; read-out: Km^Thr, L481T, pMON25866, pH 7.5, L-threonine 2.5-50 mM) was 3.4 mM.
